Results as given in PubChem BioAssay AID2060494 (Molecular Pharmacology Branch, DTP, NCI, 2025).
Values belong to the compound of their own block, whether it stands above or below them.

Tested on: 435261-313-R-J1-PDC complex spheroid viability
Experiment: Anticancer human tumor 435261-313-R-J1-PDC patient-derived colon adenocarcinoma cell line growth inhibition [GQUAD]
Settings: for IC50: curve of first compound; for viability, T/C: stronger effect = lower value
Summary of the method: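 Viability of tumor cells grown as complex spheroids with endothelial and stromal cells, exposed to drug combinations. Top concentration at or near clinical Cmax (else 10 microM), diluted in half-log increments.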

[1] = second compound 0.0316 µM, first compound 0.0316 µM
[2] = second compound 0.0316 µM, first compound 0.1 µM
[3] = second compound 0.0316 µM, first compound 0.316 µM
[4] = second compound 0.0316 µM, first compound 1 µM
[5] = second compound 0.0316 µM, first compound 3.16 µM
[6] = second compound 0.0316 µM, first compound 10 µM
[7] = second compound 0.1 µM, first compound 0.0316 µM
[8] = second compound 0.1 µM, first compound 0.1 µM
[9] = second compound 0.1 µM, first compound 0.316 µM
[10] = second compound 0.1 µM, first compound 1 µM
[11] = second compound 0.1 µM, first compound 3.16 µM
[12] = second compound 0.1 µM, first compound 10 µM
[13] = second compound 0.316 µM, first compound 0.0316 µM
[14] = second compound 0.316 µM, first compound 0.1 µM
[15] = second compound 0.316 µM, first compound 0.316 µM
[16] = second compound 0.316 µM, first compound 1 µM
[17] = second compound 0.316 µM, first compound 3.16 µM
[18] = second compound 0.316 µM, first compound 10 µM
[19] = second compound 1 µM, first compound 0.0316 µM
[20] = second compound 1 µM, first compound 0.1 µM
[21] = second compound 1 µM, first compound 0.316 µM
[22] = second compound 1 µM, first compound 1 µM
[23] = second compound 1 µM, first compound 3.16 µM
[24] = second compound 1 µM, first compound 10 µM
[25] = second compound 3.16 µM, first compound 0.0316 µM
[26] = second compound 3.16 µM, first compound 0.1 µM
[27] = second compound 3.16 µM, first compound 0.316 µM
[28] = second compound 3.16 µM, first compound 1 µM
[29] = second compound 3.16 µM, first compound 3.16 µM
[30] = second compound 3.16 µM, first compound 10 µM
[31] = second compound 10 µM, first compound 0.0316 µM
[32] = second compound 10 µM, first compound 0.1 µM
[33] = second compound 10 µM, first compound 0.316 µM
[34] = second compound 10 µM, first compound 1 µM
[35] = second compound 10 µM, first compound 3.16 µM
[36] = second compound 10 µM, first compound 10 µM
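Also: spheroids exposed to the agents for seven days before readout.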
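For viability, T/C in this document: percent of vehicle control viability with DMSO wells as 100%.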

IC50 (second compound 0.0316 µM): > 10000 nM
IC50 (second compound 0.1 µM): > 10000 nM
IC50 (second compound 0.316 µM): > 10000 nM
IC50 (second compound 1 µM): < 31.6 nM
IC50 (second compound 3.16 µM): < 31.6 nM
IC50 (second compound 10 µM): < 31.6 nM
Structure (SMILES): COc1cc(C2c3cc4c(cc3C(OC3OC5COC(C)OC5C(O)C3O)C3COC(=O)C23)OCO4)cc(OC)c1O (stereo unspecified) + Cc1cnc(CNC(=O)c2c(=O)c3ccc(N4CCCN(C)CC4)nc3n3c2sc2ccccc23)cn1
viability, T/C [1]: 77.6%
viability, T/C [2]: 59.1%
viability, T/C [3]: 60.8%
viability, T/C [4]: 56.3%
viability, T/C [5]: 55%
viability, T/C [6]: 54.2%
viability, T/C [7]: 86.6%
viability, T/C [8]: 63.6%
viability, T/C [9]: 54.2%
viability, T/C [10]: 60.7%
viability, T/C [11]: 47.1%
viability, T/C [12]: 54.5%
viability, T/C [13]: 48.3%
viability, T/C [14]: 60%
viability, T/C [15]: 53.1%
viability, T/C [16]: 53%
viability, T/C [17]: 51.8%
viability, T/C [18]: 50.7%
viability, T/C [19]: 31.6%
viability, T/C [20]: 38.1%
viability, T/C [21]: 39%
viability, T/C [22]: 43%
viability, T/C [23]: 34.3%
viability, T/C [24]: 35.6%
viability, T/C [25]: 16.7%
viability, T/C [26]: 16.3%
viability, T/C [27]: 11.1%
viability, T/C [28]: 12%
viability, T/C [29]: 19.7%
viability, T/C [30]: 5.43%
viability, T/C [31]: 0.14%
viability, T/C [32]: 0.13%
viability, T/C [33]: 0.12%
viability, T/C [34]: 0.12%
viability, T/C [35]: 0.2%
viability, T/C [36]: 0.14%

Structure (SMILES): CC[C@@]1(O)C(=O)OCc2c1cc1n(c2=O)Cc2cc3c(CN(C)C)c(O)ccc3nc2-1 + CN(C)c1ccc(Nc2c3ccc(NC(=O)CCN4CCCC4)cc3nc3cc(NC(=O)CCN4CCCC4)ccc23)cc1
IC50 (second compound 0.0316 µM): > 316 nM
IC50 (second compound 0.1 µM): > 316 nM
IC50 (second compound 0.316 µM): > 316 nM
IC50 (second compound 1 µM): > 316 nM
IC50 (second compound 3.16 µM): 72.5 nM
IC50 (second compound 10 µM): < 0.999 nM
viability, T/C (second compound 0.0316 µM, first compound 0.000999 µM): 110%
viability, T/C (second compound 0.0316 µM, first compound 0.00316 µM): 96.6%
viability, T/C (second compound 0.0316 µM, first compound 0.00999 µM): 116%
viability, T/C [1]: 87.2%
viability, T/C (second compound 0.0316 µM, first compound 0.0999 µM): 67.5%
viability, T/C [3]: 88.7%
viability, T/C (second compound 0.1 µM, first compound 0.000999 µM): 119%
viability, T/C (second compound 0.1 µM, first compound 0.00316 µM): 111%
viability, T/C (second compound 0.1 µM, first compound 0.00999 µM): 101%
viability, T/C [7]: 84.6%
viability, T/C (second compound 0.1 µM, first compound 0.0999 µM): 76.1%
viability, T/C [9]: 77.2%
viability, T/C (second compound 0.316 µM, first compound 0.000999 µM): 108%
viability, T/C (second compound 0.316 µM, first compound 0.00316 µM): 99.6%
viability, T/C (second compound 0.316 µM, first compound 0.00999 µM): 87.5%
viability, T/C [13]: 64.2%
viability, T/C (second compound 0.316 µM, first compound 0.0999 µM): 73.7%
viability, T/C [15]: 74.2%
viability, T/C (second compound 1 µM, first compound 0.000999 µM): 88.4%
viability, T/C (second compound 1 µM, first compound 0.00316 µM): 99.3%
viability, T/C (second compound 1 µM, first compound 0.00999 µM): 87.8%
viability, T/C [19]: 81.5%
viability, T/C (second compound 1 µM, first compound 0.0999 µM): 82.3%
viability, T/C [21]: 84.1%
viability, T/C (second compound 3.16 µM, first compound 0.000999 µM): 75.2%
viability, T/C (second compound 3.16 µM, first compound 0.00316 µM): 62.8%
viability, T/C (second compound 3.16 µM, first compound 0.00999 µM): 78.6%
viability, T/C [25]: 63.4%
viability, T/C (second compound 3.16 µM, first compound 0.0999 µM): 45.3%
viability, T/C [27]: 44.3%
viability, T/C (second compound 10 µM, first compound 0.000999 µM): 39.9%
viability, T/C (second compound 10 µM, first compound 0.00316 µM): 40.5%
viability, T/C (second compound 10 µM, first compound 0.00999 µM): 33.6%
viability, T/C [31]: 36.5%
viability, T/C (second compound 10 µM, first compound 0.0999 µM): 29.8%
viability, T/C [33]: 22%

Structure (SMILES): O=C(c1cc(Cc2n[nH]c(=O)c3ccccc23)ccc1F)N1CCN(C(=O)C2CC2)CC1 + CN(C)c1ccc(Nc2c3ccc(NC(=O)CCN4CCCC4)cc3nc3cc(NC(=O)CCN4CCCC4)ccc23)cc1
IC50 (second compound 0.0316 µM): > 10000 nM
IC50 (second compound 0.1 µM): > 10000 nM
IC50 (second compound 0.316 µM): > 10000 nM
IC50 (second compound 1 µM): > 10000 nM
IC50 (second compound 3.16 µM): > 10000 nM
IC50 (second compound 10 µM): < 31.6 nM
viability, T/C [1]: 96%
viability, T/C [2]: 133%
viability, T/C [3]: 84.8%
viability, T/C [4]: 80.8%
viability, T/C [5]: 123%
viability, T/C [6]: 89.4%
viability, T/C [7]: 101%
viability, T/C [8]: 83.7%
viability, T/C [9]: 118%
viability, T/C [10]: 102%
viability, T/C [11]: 90%
viability, T/C [12]: 81.9%
viability, T/C [13]: 109%
viability, T/C [14]: 92.5%
viability, T/C [15]: 97.8%
viability, T/C [16]: 84.2%
viability, T/C [17]: 85.2%
viability, T/C [18]: 69.9%
viability, T/C [19]: 85%
viability, T/C [20]: 78%
viability, T/C [21]: 70.1%
viability, T/C [22]: 70%
viability, T/C [23]: 95.8%
viability, T/C [24]: 69.2%
viability, T/C [25]: 80.5%
viability, T/C [26]: 53.2%
viability, T/C [27]: 66.8%
viability, T/C [28]: 60%
viability, T/C [29]: 77.4%
viability, T/C [30]: 57.6%
viability, T/C [31]: 37.3%
viability, T/C [32]: 46.2%
viability, T/C [33]: 31%
viability, T/C [34]: 49.3%
viability, T/C [35]: 36.4%
viability, T/C [36]: 32.9%
